The text below walks through data of ChEMBL document CHEMBL1152823, “Identification of novel epoxide inhibitors of hepatitis C virus replication using a high-throughput screen” (Antimicrob Agents Chemother, 2007).

Some results are limits rather than exact numbers.

Data set [1] has as its system Hepatitis C virus. In words: Antiviral activity against HCV replication in human HuH7 cells expressing Rep-Feo replicon by luciferase assay. In kind it is functional, organism-based, Hepacivirus hominis. The settings on record: Huh-7. (In antiviral work, replicon cells carry a viral genome segment that copies itself.)
Data set [2] is described as follows: Cytotoxicity against human HuH7 cells. In kind it is cell-based, Huh-7.
In data set [3] the test system is Hepatitis C virus. The experiment in a line: Antiviral activity against HCV JFH1 replication in human Huh7.5.1 cells at 5 uM after 48 hrs by quantitative RT-PCR analysis relative to 1 ng/ml interferon. The format is functional, Hepacivirus hominis, JFH-1, Huh-7.
In data set [4] the test system is Hepatitis C virus. The experiment in a line: Antiviral activity against HCV JFH1 replication in human Huh7.5.1 cells at 1 uM after 48 hrs by quantitative RT-PCR analysis relative to 1 ng/ml interferon. The format is functional, Hepacivirus hominis, JFH-1, Huh-7.

One may read the EC50 as the midpoint of the concentration-response curve. One may read the CC50 as the concentration that lowers cell viability or growth by half. A low value points to greater toxicity to the cells. For `C[C@@]12COC[C@]13C=C(Br)C(C2)[C@]1(CO1)C3=O`, in data set [1], the EC50 is 12.7 µM. In addition, the half-maximal cytotoxic concentration (CC50) in data set [2] is above 50 µM.

Regarding `O=C1C2C=C(I)C(CC2OCCCCCCO)[C@]12CO2` (stereo partly specified), the EC50 in data set [1] is 26.7 µM. The half-maximal cytotoxic concentration (CC50) in data set [2] was above 50 µM.

As to `Cc1cc(C)c(-c2cc([C@H](C)O/N=C3\[C@H]4CCn5c(=O)n(-c6ccccc6)c(=O)n5C4[C@H](O)[C@@H]4O[C@H]34)on2)c(C)c1` (stereo partly specified), the Activity in data set [3] is 48.4%; in data set [4] it was 45.1%. Further, in data set [1], the 50% effective concentration (EC50) is below 0.5 µM. In addition, the half-maximal cytotoxic concentration (CC50) in data set [2] was 19.5 µM.

In data set [1], `CC[C@@H](c1ccccc1)N1CN2[C@H]3[C@H](O)[C@@H]4O[C@@H]4/C(=N\OC[C@@H](O)COCc4ccco4)[C@H]3CCN2C1=O` returned a concentration giving a half-maximal response (EC50) of 2.5 µM. Besides, the CC50 in data set [2] was above 50 µM.

The molecule `O=C1C2C=C(I)C(CC2OCCCCO)[C@]12CO2` (stereo partly specified) registered a concentration giving a half-maximal response (EC50) in data set [1] of 25.7 µM. The half-maximal cytotoxic concentration (CC50) in data set [2] is above 50 µM.

The molecule `C[C@@H](O/N=C1\[C@H]2CCn3c(=O)n(-c4ccccc4)c(=O)n3C2[C@H](O)[C@@H]2O[C@H]12)c1cn([C@H](CO)Cc2ccccc2)nn1` (stereo partly specified) gave a half-maximal effective concentration (EC50) in data set [1] of 7.6 µM. The molecule further had a CC50 in data set [2] above 50 µM.

Turning to `C#CCCCO/N=C1/C[C@@H](O)[C@@H](O)[C@@H]2[C@@H]3C(=O)N(CCC(=O)OCC)C(=O)[C@@H]3CC[C@@H]12`, the EC50 in data set [1] was above 100 µM. Moreover, the 50% cytotoxic concentration (CC50) in data set [2] is above 50 µM.

`C#CCCCO/N=C1/[C@H]2CCN3C(=O)N([C@@H](CC)c4ccccc4)CN3[C@H]2[C@H](O)[C@@H]2O[C@H]12` had an EC50 in data set [1] of 3.8 µM. Also, the CC50 in data set [2] was above 50 µM.

Consider `O=c1n(-c2ccccc2)c(=O)n2n1CC[C@@H]1/C(=N\OC[C@@H](O)COCc3ccco3)[C@H]3O[C@H]3[C@@H](O)C12` (stereo partly specified), for which the response in data set [1] was half-maximal at 7 µM (EC50). Also, the CC50 in data set [2] is above 50 µM.

In the case of `O=C1C2C=C(Br)C(CC2c2ccccc2)[C@]12CO2` (stereo partly specified), in data set [1], the response was half-maximal at 19.7 µM (EC50). Further, the CC50 in data set [2] was above 50 µM.

As to `c1ccc(C2NCCc3c2[nH]c2ccccc32)cc1` (stereo unspecified), the EC50 in data set [1] was 30 µM. The molecule further yielded a CC50 in data set [2] above 50 µM.

`O=C1[C@@]2(CO)C=C(Br)C(CC2c2ccccc2)[C@]12CO2` (stereo partly specified): in data set [1], the midpoint of the response, the EC50, lay at 6.6 µM. This molecule also displayed a CC50 in data set [2] above 50 µM.

Consider `COc1ccc(O[C@H]2C=C[C@@H](c3ccccc3)O[C@@H]2CO/N=C(\C)CCN2CCc3nc(-c4ccccc4)c(-c4ccccc4)cc3C2)cc1`, for which the EC50 in data set [1] came to 21.1 µM. This molecule showed a CC50 in data set [2] above 50 µM.

Take `CCCNC(=O)OC[C@H]1O[C@H](CCO/N=C(\C)CCN2CCc3nc(-c4ccccc4)c(-c4ccccc4)cc3C2)C=C[C@@H]1Oc1ccc(OC)cc1`: the EC50 in data set [1] is 14.2 µM. This molecule also returned a CC50 in data set [2] above 50 µM.

For the molecule `COc1ccc(O[C@H]2C=C[C@@H](c3ccccc3)O[C@@H]2CO/N=C2/[C@H]3CCn4c(=O)n(-c5ccccc5)c(=O)n4[C@H]3[C@H](O)[C@@H]3O[C@H]23)cc1`, the concentration giving a half-maximal response (EC50) in data set [1] is 2.6 µM. In addition, the CC50 in data set [2] was 18 µM.

With `O=C1[C@@]2(CO)C=C(I)C(CC2c2ccccc2)[C@]12CO2` (stereo partly specified), the Activity amounted to 48.4% in data set [3] and 45.1% in data set [4]. Further, the EC50 in data set [1] was determined as 3.5 µM. For the same molecule, in data set [2], half-maximal cytotoxicity (CC50) was put at 27.1 µM.

On to `C[C@H](O/N=C1\[C@H]2CCn3c(=O)n(-c4ccccc4)c(=O)n3C2[C@H](O)[C@@H]2O[C@H]12)c1cn([C@H](CO)Cc2ccccc2)nn1` (stereo partly specified), for which the EC50 in data set [1] came out at 7 µM. In data set [2], this molecule came in with a 50% cytotoxic concentration (CC50) above 50 µM.

Regarding `C#CCCCO/N=C1/[C@H]2CCN3C(=O)N(c4ccccc4)CN3[C@H]2[C@H](O)[C@@H]2O[C@H]12`, the EC50 in data set [1] was determined as 1.4 µM. This molecule also yielded a CC50 in data set [2] above 50 µM.

`O=C1C2C=C(I)C(CC2OCCCCO)[C@]12CCCO2` (stereo partly specified) registered an EC50 in data set [1] above 30 µM. The molecule further returned a half-maximal cytotoxic concentration (CC50) in data set [2] above 50 µM.

`O=C1C2C=C(I)C(CC2c2ccccc2)[C@]12CO2` (stereo partly specified) yielded an EC50 in data set [1] of 9.1 µM. The CC50 in data set [2] is above 50 µM.

`O=C1C2C=C(Br)C(CC2OCCCCCCO)[C@]12CO2` (stereo partly specified): in data set [1], the EC50 came out at 19.6 µM. Also, the cytotoxic concentration (CC50) in data set [2] was above 50 µM.

Turning to `C=CC[C@@H]1C=C[C@H](O/N=C2\[C@H]3CCn4c(=O)n(-c5ccccc5)c(=O)n4[C@H]3[C@H](O)[C@@H]3O[C@H]23)[C@@H](CO)O1`, the midpoint of the response in data set [1], the EC50, lay at 7.75 µM. In data set [2], the CC50 was 35.3 µM.

For `CC(=O)OC[C@H]1OC(CCO/N=C2/[C@H]3CCn4c(=O)n(-c5ccccc5)c(=O)n4[C@H]3[C@H](O)[C@@H]3O[C@H]23)C=C[C@@H]1OC(C)=O` (stereo partly specified), the EC50 in data set [1] turned out to be 0.7 µM. The molecule further had a CC50 in data set [2] of 9 µM.

As for `CO[C@]12C=C(Br)C(CC1c1cccc(C)c1)[C@]1(CO1)C2=O` (stereo partly specified), the EC50 in data set [1] stood at 8 µM. For the same molecule, the 50% cytotoxic concentration (CC50) in data set [2] is above 50 µM.

Take `CC(=O)OC[C@H]1O[C@@H](O/N=C2/[C@H]3CCn4c(=O)n(-c5ccccc5)c(=O)n4C3[C@H](O)[C@@H]3O[C@H]23)[C@H](OC(C)=O)[C@@H](OC(C)=O)[C@@H]1OC(C)=O` (stereo partly specified): the response in data set [1] was half-maximal at 42.9 µM (EC50). This molecule also had a CC50 in data set [2] above 50 µM.

As to `Cc1cc2c(nc1C)CCCN2C[C@H](C)O/N=C1\[C@H]2CCn3c(=O)n(-c4ccccc4)c(=O)n3[C@H]2[C@H](O)[C@@H]2O[C@H]12`, in data set [1], the response was half-maximal at 1.5 µM (EC50). For the same molecule, it took 39.3 µM to reach half-maximal cytotoxicity in data set [2] (CC50).
